The text below walks through data of publication PMC8229286, “Pharmacokinetics-Driven Evaluation of the Antioxidant Activity of Curcuminoids and Their Major Reduced Metabolites—A Medicinal Chemistry Approach” (Molecules, 2021).

Values after ≈ are worked out from the molar mass of the structure shown. Like-named read-outs stand apart in the source and are kept apart here.

By kinetic solubility is commonly meant the concentration staying in solution when a stock, usually in DMSO, is diluted into the medium. Broadly, the Papp is a coefficient for how fast a substance crosses the barrier. A lower Papp goes with poor permeation. As a reminder, the IC50 is the concentration needed to halve the response being measured. A lower IC50 goes with greater potency in that assay. As usually defined, the CLint scaled is the rate of metabolic loss divided by the concentration. Lower therefore signals slow turnover. Broadly, the logP is a log measure of how a compound divides between an organic and an aqueous phase. Read a low logP as a more hydrophilic compound. Broadly, the half-life is how long it takes for the measured level to halve.

The nature of data set [1]: Kinetic solubility in PBS. Conditions: for solubility kinetic at 2 h: PBS with 5% (v/v) DMSO, pH 7.4, aqueous with cosolvent or surfactant or cyclodextrin, kinetic from dmso stock; for Kinetic Solubility: after 2 h, at 37 °C in PBS, pH 7.4, mean ± S.E.M, n = 3.
Protocol: (§1) Kinetic solubility was tested with 5% (v/v) DMSO as cosolvent in phosphate buffered saline (PBS, 0.01 M phosphate buffer pH 7.4, 0.138 M NaCl, 0.0027 M KCl, without Ca^2+, Mg^2+) at room temperature for 2 h. Chemical stability was tested with 10% (v/v) DMSO as cosolvent in PBS pH 7.4 at 37 °C for 4 h. Metabolic stability was investigated on human liver microsomes (1 mg/mL), which were preincubated with 25 µM test compounds for 5 min at 37 °C in 0.1 M Tris-HCl buffer, pH 7.4 contained 6.67 mM Na-pyrophosphate, 5.56 mM MgCl2, 5.56 mM glucose-6-phosfate, 4.63 U/mL glucose-6-phosphate dehydrogenase. The reaction was initiated by adding preincubated cofactor (37 °C,10 mM NADPH). After 10, 30, and 60 min incubation at 37 °C, the reaction was stopped by adding equal volume of cooled methanol (−20 °C). The samples were centrifuged at 20,000 g for 5 min. The supernatant and all above described test solutions were analyzed by LC-MS/MS. LC-MS analysis was carried out on an Agilent 1200 liquid chromatography system coupled with an 6410 QQQ-MS (Agilent Technologies, Palo Alto, CA, USA). Analysis was on a Cortecs C18 column (150 × 4.6 mm, 2.7 µm, Waters) at 40 °C, with a mobile phase flow rate of 1.45 mL/min. Composition of eluent A was 0.1% (v/v) trifluoroacetic acid (TFA) in water (pH 1.9). A linear gradient of 0–100% B (acetonitrile (AcN) and water in 95:5 (v/v)) was applied at a range of 0–17 min, then 100% B at 17–22 min. The injection volume was set at 20 µL and chromatograms were registered at 220 ± 4 nm. The MSD operating parameters in ESI positive ionization mode were as follows: scan ion mode (100–800 m/z), drying gas temperature 350 °C, nitrogen flow rate 12 L/min, nebulizer pressure 40 psi, quadrupole temperature 100 °C, capillary voltage 4000 V, fragmentor voltage 135 V.
Another data set is described as follows: BBB-PAMPA permeability. Conditions: for Papp at 4 h, 100 µM: PAMPA.
Data set [2] is described as follows: Chemical stability in PBS pH 7.4. The following applies: between 0–2 h at 37 °C in PBS, Stable = no chemical change detected during the evaluation time (4 h).
Protocol: as §1
Data set [3] can be described thus: DPPH free radical scavenging assay. Conditions: 30 min, absorbance 550 nm; average ± S.E.M. Here is the method: The DPPH free radical scavenging assay was performed based on the method of Fukumoto et al. with some modification. The measurement was performed on a 96-well microplate. Microdilution series of the samples (0.2 mg/mL stock solution, dissolved in HPLC grade MeOH) were made starting with 100 μL. To each well 100 μL of DPPH reagent (100 μM in HPLC grade MeOH) was added to gain the final volume of 200 μL. The microplates were kept in dark, and the absorbance was measured after 30 min at 550 nm using a FluoStar Optima plate reader (software version 2.20R2, BMG Labtech, Ortenberg, Germany). Methanol was used as blank. The scavenging activity was calculated as Inhibition (%) = (A0 − As)/A0 × 100, and EC50 values were calculated by Graph Pad Prism (GraphPad Software, Inc., La Jolla, CA, USA).
Background: The DPPH test is a chemical assay of radical scavenging.

A short description of data set [4]: Metabolic stability in human liver microsomes. The following applies: for CLint scaled at 25 µM / half-life at 25 µM: human, human liver microsomes, pH 7.4; for Met.stab. in HLM t1/2: human liver microsomes 1 mg/mL, 25 µM compound, 37 °C, mean ± S.E.M, n = 3; for Met.stab. in HLM Cl'int: intrinsic clearance calculated from in vitro t1/2 data in HLM.
Protocol: as §1
A further data set can be described thus: GI-PAMPA permeability. The following applies: for Papp at 4 h, 100 µM: PAMPA, pH 7.4; for GI-PAMPA MR (membrane retention) / GI-PAMPA Pe: PBS pH 7.4, 37 °C, 4 h. A general note: PAMPA measures passive passage across an artificial lipid membrane.
The nature of data set [5]: Experimental logP in octanol-water and toluene-water systems. Conditions: for ΔlogPoct_tol: logPo/w − logPtol/w; for logP at 24 h: octanol/water; for logPtol/w: toluene-water, average ± S.E.M, five parallel experiments.
Protocol: Lipophilicity measurements of hydrocurcumins were performed by dissolving the compounds in the organic solvents (octanol and toluene) at 1mg/mL concentration and mixing them with water (1:5 and 1:10 ratios, each in five replicates). After 24 h the concentration of the compounds in the aqueous phase were calculated by using a calibration dilution series measured on RP-HPLC system. The concentration of the organic phase was calculated from the concentration of the aqueous phase.
Data set [6] is described as follows: AAPH assay (oxygen radical absorbance capacity, ORAC). Conditions: concentration for 50% antioxidant capacity; average ± S.E.M. As to the method:
Antioxidant capacity measurement was carried out on 96-well microplates, based on oxygen radical absorbance capacity (ORAC) assay. A 20 μL aliquot of the sample (6 dilutions with buffer from 10 μg/mL stock solution dissolved in phosphate buffer, containing 1% MeOH), 120 μL of fluorescein (dissolved in phosphate buffer, pH = 7.4, 70 nM final concentration), and 60 μL of 2,2′-azobis(2-methylpropionamidine) dihydrochloride (AAPH, dissolved in phosphate buffer, pH = 7.4, 12 mM final concentration) were pipetted into each well. Each measurement was performed twice in duplicates. Each plate contained six dilutions of trolox as the standard, and phosphate buffer as blank. Flourescence (excitation at 485 nm and emission at 520 nm) was measured over a 3 h period with 1.5-min cycle intervals by a FluoStar Optima plate-reader (BMG Labtech GmbH). The antioxidant capacity was calculated for each concentration with the following formula: antioxidant capacity = (AUCAntioxidant − AUCBlank)/AUCBlank × 100 where AUC is the area under curve obtained for the sample and blank assays. Based on the linear correlation between the concentration of the samples and the antioxidant capacity, IC50 values could be obtained, which define the concentration (in µM) of each compound required to have 50% antioxidant capacity defined by the previous equation.

On the set-up of data set [7]: method as in PMID 17999464. The following applies: cited from earlier work.
For data set [8] the following is noted: pH 7.4.
Protocol: (§2) BBB and GI permeability was determined by using tissue-specific parallel artificial membrane permeability assay (GI-PAMPA [46], BBB-PAMPA [47]) models. Briefly, a 96-well acceptor plate and a 96-well filter plate were assembled into a sandwich. The hydrophobic filter material of the 96 well filter plate was coated by the mixture of phosphatidylcholine:cholesterol 2:1 (5 µL, 4 % (w/v) in dodecane: GI-PAMPA) or by porcine brain lipid (PBL) (5 µL, 2.6 % (w/v) in dodecane:hexane 25:75 v/v%: BBB-PAMPA). Subsequently, the acceptor wells at the bottom of the sandwich were filled with 300 µL of 10 mM PBS solution with 5% DMSO adjusted to pH 7.4. The donor wells at the top of the sandwich were hydrated with 150 µL of test compound solution. The test compound solutions were prepared in 100 times dilution. Firstly, a 10 mM stock solution was prepared from the corresponding compound in DMSO, then it was diluted with PBS (pH 6.5: GI-PAMPA or pH 7.4: BBB-PAMPA) to get 5% mixture followed by filtration through a MultiScreen Solubility filter plate. The resulting sandwich was then incubated at 37 °C for 4h. After the incubation, PAMPA sandwich plates were separated and compound concentrations in donor and acceptor solutions were investigated by HPLC-DAD. HPLC analyses were performed using a Shimadzu Prominence Modular HPLC system (Shimadzu Corporation, Kyoto, Japan) on a Kinetex® 2.6mm C18 100 Å LC column (30 × 3 mm) at 45 °C. Mobile phase flow rate was 1.1 mL/min using a gradient of AcN and 0.1% (v/v) formic acid in water (from 5% AcN to 95% in 2.5 min). Chromatograms were recorded at the wavelength of 200–500 nm, integration was carried out at the UVmax of each compound. The applied injection volume was 6 μL.
The conditions of data set [9]: pH 7.4. This is another data set of the same source.
Protocol: as §1
The conditions of data set [10]: microsomes.
Protocol: as §1

Protocol for BBB-PAMPA permeability: as §2
Protocol for GI-PAMPA permeability: as §2

In data set [1], `COc1cc(CCC(=O)CC(O)CCc2ccc(O)c(OC)c2)ccc1O` (stereo not shown) [6HC, hexahydrocurcumin] had a solubility (kinetic) at 2 h of 74.1 ± 0.3 µM (≈ 27.7 µg/mL). In “BBB-PAMPA permeability”, this molecule yielded an apparent permeability (Papp) at 4 h, 100 µM of 1.25 ± 0.01 ×10⁻⁶ cm/s. The “BBB-PAMPA MR (membrane retention)” value in the data set “BBB-PAMPA permeability” (PBS pH 6.5→pH 7.4, 37 °C, 4 h) stood at 13.3 ± 0.5 %. The “Chemical Stability Shelf-Life” value in data set [2] is “Stable ^#”. For the same molecule, in data set [3], half-maximal inhibition (IC50) was put at 9.9 ± 0.9 µM. Besides, in data set [4], the CLint scaled at 25 µM was 3.3 mL/min/kg. In “GI-PAMPA permeability”, the Papp at 4 h, 100 µM worked out at 0.37 ± 0.02 ×10⁻⁶ cm/s and the “GI-PAMPA MR (membrane retention)” value is listed as 5.0 ± 0.6 %. For the same molecule, in data set [5], the ΔlogPoct_tol is given as 0.46, the log partition coefficient (logP) at 24 h came out at 2.15 ± 0.01 and the logPtol/w is recorded as 1.69 ± 0.03. Also, the IC50 in data set [6] worked out at 0.39 ± 0.06 µM.

In data set [1], `COc1cc(CCC(O)CC(O)CCc2ccc(O)c(OC)c2)ccc1O` (stereo not shown) [8HC, octahydrocurcumin] returned a kinetic solubility at 2 h of 72.9 ± 0.9 µM (≈ 27.4 µg/mL). The same molecule returned an apparent permeability coefficient (Papp) at 4 h, 100 µM in “BBB-PAMPA permeability” of 0.97 ± 0.02 ×10⁻⁶ cm/s. Besides, the “BBB-PAMPA MR (membrane retention)” value in “BBB-PAMPA permeability” (PBS pH 6.5→pH 7.4, 37 °C, 4 h) is reported as 8.9 ± 1.4 %. In addition, the “Chemical Stability Shelf-Life” value in data set [2] is given as “Stable ^#”. Moreover, inhibition in data set [3] was half-maximal at 11.4 ± 1 µM (IC50). Further, in data set [4], the CLint scaled at 25 µM is 1.4 mL/min/kg and the half-life at 25 µM was 3.86 ± 0.56 h. Besides, in “GI-PAMPA permeability”, the apparent permeability (Papp) at 4 h, 100 µM turned out to be 0.24 ± 0.01 ×10⁻⁶ cm/s and the “GI-PAMPA MR (membrane retention)” value is 4.4 ± 0.2 %. In data set [5], the ΔlogPoct_tol was determined as 0.75, the logP at 24 h came to 2.3 ± 0.02 and the logPtol/w amounted to 1.55 ± 0.14. This molecule also had a concentration for half-maximal inhibition (IC50) in data set [6] of 0.43 ± 0.11 µM.

Consider `COc1cc(CCC(O)CC(O)CCc2ccc(O)cc2)ccc1O` (stereo not shown) [8HDC, octahydro-demethoxycurcumin], for which the solubility (kinetic) at 2 h in data set [1] was determined as 68.7 ± 0.7 µM (≈ 23.8 µg/mL). In “BBB-PAMPA permeability”, this molecule had an apparent permeability coefficient (Papp) at 4 h, 100 µM of 0.53 ± 0.07 ×10⁻⁶ cm/s. Besides, the “BBB-PAMPA MR (membrane retention)” value in the data set “BBB-PAMPA permeability” (PBS pH 6.5→pH 7.4, 37 °C, 4 h) is reported as 14.9 ± 1.9 %. Besides, the “Chemical Stability Shelf-Life” value in data set [2] was “Stable ^#”. Moreover, in [3], the half-inhibitory concentration (IC50) turned out to be 33.1 ± 0.8 µM. Further, in [4], the intrinsic clearance (CLint scaled) at 25 µM was 0.9 mL/min/kg and the half-life at 25 µM was 6.08 ± 0.957 h. In addition, in “GI-PAMPA permeability”, the “GI-PAMPA MR (membrane retention)” value is recorded as 1.7 ± 0.3 % and the “GI-PAMPA Pe” value is reported as 2.2 ± 0.1 * ·10^−7 cm/s. In data set [6], this molecule had a half-inhibitory concentration (IC50) of 0.49 ± 0.29 µM.

Regarding `COc1cc(/C=C/C(O)=C/C(=O)/C=C/c2ccc(O)cc2)ccc1O` [DMC, demethoxycurcumin, reference compound], in data set [1], the solubility (kinetic) at 2 h turned out to be 5.7 ± 0.9 µM (≈ 1.93 µg/mL). The “BBB-PAMPA MR (membrane retention)” value in “BBB-PAMPA permeability” (PBS pH 6.5→pH 7.4, 37 °C, 4 h) came out at 98.3 ± 0.1%. The “Chemical Stability Shelf-Life” value in [2] stood at 22.1 ± 0.2 min. This molecule gave an IC50 in data set [3] of 16.8 ± 0.7 µM. Besides, in data set [4], the intrinsic clearance (CLint scaled) at 25 µM was 8.3 mL/min/kg and the half-life at 25 µM was 0.63 ± 0.015 h. Besides, in “GI-PAMPA permeability”, the Papp at 4 h, 100 µM was determined as 1.06 ± 0.06 ×10⁻⁶ cm/s and the “GI-PAMPA MR (membrane retention)” value worked out at 85.6 ± 0.5%. In addition, in [6], the IC50 stood at 0.49 ± 0.03 µM.

`Cc1c(C)c2c(c(C)c1O)CCC(C)(C(=O)O)O2` (stereo not shown) [Trolox, reference compound]: the results for the IC50 in [3] and in data set [6] were 5.6 ± 0.1 µM and 2.02 ± 0.13 µM, respectively.

On to Curcumin [reference compound], for which the “Kinetic Solubility” value in data set [1] was 3.1 ± 0.1 µM. The “Safe human consumption amount” value in data set [7] is “up to 12 g/day”. In addition, the “BBB-PAMPA MR (membrane retention)” value in “BBB-PAMPA permeability” (PBS pH 6.5→pH 7.4, 37 °C, 4 h) came to 96.7 ± 0.4%. Further, in [2], the “Chemical Stability Shelf-Life” value is 29.7 ± 0.6 min. Further, the half-inhibitory concentration (IC50) in data set [3] was determined as 11.8 ± 0.1 µM. Further, in data set [4], the “Met.stab. in HLM t1/2” value turned out to be 1.18 ± 0.085 h and the “Met.stab. in HLM Cl'int” value is 4.5 ± 0.3 mL/min/kg. For the same molecule, the “Major metabolite identified in the microsomal system (LC-MS)” value in data set [4] (semi-qualitative, by m/z change and retention time, Table S1) worked out at 6HC as a major metabolite. In addition, in “GI-PAMPA permeability”, the “GI-PAMPA MR (membrane retention)” value amounted to 90.6 ± 0.3% and the “GI-PAMPA Pe” value was 5.0 ± 0.4 ·10^−7 cm/s. Also, the IC50 in [6] came to 0.32 ± 0.1 µM.

Consider tetrahydro-demethoxycurcumin [4HDC], for which, in data set [1], the “Kinetic Solubility” value is 69.5 ± 3.1 µM. Also, in “BBB-PAMPA permeability” (PBS pH 6.5→pH 7.4, 37 °C, 4 h), the “BBB-PAMPA MR (membrane retention)” value came to 40.9 ± 1.5 % and the “BBB-PAMPA Pe” value was 20.7 ± 0.5 ·10^−7 cm/s. For the same molecule, in data set [2], the “Chemical Stability Shelf-Life” value is recorded as “Stable ^#”. Also, the IC50 in [3] turned out to be 14.2 ± 0.5 µM. In data set [4], the “Met.stab. in HLM t1/2” value was 0.0722 ± 0.00033 h and the “Met.stab. in HLM Cl'int” value is 72.0 ± 0.4 mL/min/kg. Moreover, in “GI-PAMPA permeability”, the “GI-PAMPA MR (membrane retention)” value came to 12.9 ± 1.6 % and the “GI-PAMPA Pe” value is listed as 20.4 ± 0.3 * ·10^−7 cm/s. In addition, in data set [6], the IC50 turned out to be 0.41 ± 0.03 µM.

With tetrahydrocurcumin [4HC], the “BBB-PAMPA MR (membrane retention)” value is on record as 34.4 ± 0.6 %. Further, in data set [8] (4 h, 100 µM), the “GI-PAMPA Pe” value is recorded as 30.3 ± 1.3 * ·10^−7 cm/s. In addition, in data set [8], the “GI-PAMPA MR (membrane retention)” value turned out to be 13.3 ± 0.4 %. Where the note is “4 h, 100 µM”, the “BBB-PAMPA Pe” value is given as 31.3 ± 1.1 ·10^−7 cm/s. Also, the IC50 in data set [3] was 9.8 ± 0.2 µM. In data set [9], the “Kinetic Solubility” value was 70.3 ± 0.2 µM. For the same molecule, the “Met.stab. in HLM t1/2” value in data set [10] (human) came to 4.34 ± 0.01 min. In data set [10], the “Met.stab. in HLM Cl'int” value is 71.8 ± 0.1 mL/min/kg. In [6], this molecule gave a half-inhibitory concentration (IC50) of 0.43 ± 0.04 µM.
